Measurements: patent EP3046573B1, “AMYLIN ANALOGUES” (Zealand Pharma A/S, priority 2013, dated 2015)
Like-named read-outs stand apart in the source and are kept apart here. Numbered stars: 1 amine (or outer) side, 2 acyl side, 3 side chain; on linkers, the order of the positions; unused ones are H or OH. Bridge positions count the residues as written; N and C are the ends. Square brackets hold non-standard residues; d marks the D form. Peptide text beside a SMILES is read from it. * marks the point of attachment. C20 diacid = O=C(O)CCCCCCCCCCCCCCCCCCC(=O)*; γGlu = O=C(O)[C@H](CCC(=O)[*:2])N[*:1]; Hyp = O=C(O)[C@@H]1C[C@@H](O)CN1; NMeI = CC[C@H](C)[C@H](NC)C(=O)O; Sar = CNCC(=O)O

Tests used:
[1] = Solubility assessment (turbidity absorbance at 325 nm); type: physicochemical; settings: stock 2 mg/ml diluted 1:1, ambient temperature (typically 25°C), n=1
Method in brief: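 Peptide stock (2 mg/ml) in water acidified to pH 2.5 with HCl was diluted 1:1 into 100 mM acetate (pH 4.0, 5.0), histidine (pH 6.0, 7.0) or phosphate (pH 6.0, 7.0, 7.5) buffer. A280 and A325 were read at about 25°C, n=1. A325 ≤ 0.02 meant solubility ≥ 1 mg/ml.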

[2] = biological target: T1, human amylin receptor 3 (hAMYR3) consisting of hCTR2 co-expressed with human Receptor Activity Modifying Protein 3 (hRAMP3) (Homo sapiens, UniProt O60896+P30988); test: hAMYR3 assay: induction of cAMP (AlphaScreen cAMP Assay kit) in COS7 cells expressing hAMYR3; type: cell-based
T1 construct: expressed in transfected cells
T1 sequence (P30988 25-474): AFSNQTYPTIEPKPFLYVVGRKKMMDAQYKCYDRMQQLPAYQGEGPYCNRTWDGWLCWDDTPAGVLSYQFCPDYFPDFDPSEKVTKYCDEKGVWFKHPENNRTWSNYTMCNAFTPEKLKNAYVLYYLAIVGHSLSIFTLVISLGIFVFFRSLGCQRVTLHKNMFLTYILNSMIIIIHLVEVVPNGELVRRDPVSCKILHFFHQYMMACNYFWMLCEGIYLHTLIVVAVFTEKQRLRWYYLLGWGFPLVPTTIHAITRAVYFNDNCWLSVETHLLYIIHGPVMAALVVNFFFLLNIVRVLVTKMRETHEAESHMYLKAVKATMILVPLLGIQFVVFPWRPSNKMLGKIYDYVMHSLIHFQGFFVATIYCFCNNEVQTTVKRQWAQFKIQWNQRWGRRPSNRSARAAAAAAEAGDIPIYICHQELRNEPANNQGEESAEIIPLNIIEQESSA
T1 sequence (O60896 24-148 partner): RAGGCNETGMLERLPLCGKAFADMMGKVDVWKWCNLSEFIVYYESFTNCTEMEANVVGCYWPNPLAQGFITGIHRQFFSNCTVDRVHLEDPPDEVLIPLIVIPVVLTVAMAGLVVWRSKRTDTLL
Description: The cell line COS7, originating from African Green Monkey kidney fibroblast cells, was used for establishment of the stable cell lines described below. The COS7 cellular background was used due to it being RAMP naive, and as such it provides the best available system for testing of the monomeric hCTR and different heterodimeric amylin receptor subtypes functionally generated by introduction of the individual RAMPs.
A cell line expressing the human amylin receptor 3 (hAMYR3) was generated in the COS7 cellular background as stable clones. In brief, hCTR2 (GI:4502547) and hRAMP3 (GI:118572586) were amplified by PCR using primers encoding terminal restriction sites for subcloning. The 5'-end primers additionally encoded a near Kozak consensus sequence to ensure efficient translation. The fidelity of the DNA encoding the receptor was confirmed by DNA sequencing. The PCR products encoding the receptor were subcloned into a proprietary tri-cistronic mammalian expression vector with RAMP3, hCTR2 and neomycin (G418) resistance marker. The mammalian expression vector encoding the receptor was transfected into COS7 cells by a standard liposome transfection method. 48 hours post-transfection, cells were seeded for limited dilution cloning and selected with 1 mg/ml G418 in the culture medium. After 3 weeks, surviving colonies of hAMY3R-expressing cells were picked, propagated and tested in the amylin efficacy assay as described in Example 3 below. The functional generation of the amylin receptor phenotype was verified in the efficacy assay by a left-shifted efficacy response to amylin relative to monomeric calcitonin receptor, and one hAMYR3-expressing clone was chosen for compound profiling.
In vitro activity of test peptides at the hCTR2 and hAMYR3 receptors was assessed by measuring the induction of cAMP following stimulation of the receptor by pramlintide or peptides of the invention using the AlphaScreen® cAMP Assay kit from Perkin-Elmer.
Briefly, COS7 cells expressing hCTR2 (see Example 2, above) were seeded at 30-40,000 cells per well in 96-well microtiter plates coated with 0.01 % poly-L-lysine, and grown for 1 day in culture in 100 µl growth medium [DMEM, 10% FCS, Penicillin (100 IU/ml), Streptomycin (100 µg/ml)]. On the day of analysis, growth medium was removed and the cells were washed once with 200 µl Tyrode buffer [Tyrode's Salts (9.6 g/l), 10 mM HEPES, pH 7.4]. Cells were incubated in 100 µl Tyrode buffer containing increasing concentrations of test peptides, 100 µM IBMX and 0.1% casein for 15 min at 37° C. The reaction was stopped by carefully decanting off the compound/buffer medium and replacing it with lysis/detection buffer (80 µl 0.1 % w/v BSA, 5 mM HEPES, 0.3 % v/v Tween-20 in deionized water). After incubation at room temperature for 10 min., the cAMP content of the resulting cell lysate was estimated according to the AlphaScreen® cAMP Assay manufacturer's instructions. EC50 values and relative efficacy values (in %) compared to reference peptide (Pramlintide) were estimated by computer-aided curve fitting using the 4-parameter logistic (4PL) non-linear model.
The in vitro activity results (expressed as EC50 values) for peptides of the invention and for Pramlintide (reference peptide) are summarized in Table 2, below.

[3] = biological target: T2, human calcitonin receptor (hCTR2) (Homo sapiens, UniProt P30988); test: hCTR2 assay: induction of cAMP (AlphaScreen cAMP Assay kit) in COS7 cells expressing hCTR2; type: cell-based; settings: cAMP induction in COS7 cells expressing hCTR2; average of a minimum of 3 determinations; read-out: hCTR2 EC50
T2 construct: expressed in transfected cells
T2 sequence (P30988 25-474): T1 sequence (P30988 25-474)
Method in brief: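 Stable hCTR2 clone in RAMP-naive COS7 cells; peptides titrated in Tyrode buffer (pH 7.4) with 100 µM IBMX, 0.1% casein, 15 min at 37° C. cAMP read by AlphaScreen after lysis; EC50 and efficacy relative to pramlintide from 4PL fit.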

Row | EC50 [3] [nM] | EC50 ([2]; cAMP induction in COS7 cells expressing hAMYR3, average of a minimum of 3 determinations, read-out: hAMY R3 EC50) [nM] | Structure (SMILES) | Solubility, Acetate buffer pH 4 ([1]; 100 mM acetate buffer pH 4.0) | Solubility, Acetate buffer pH 5 ([1]; 100 mM acetate buffer pH 5.0) | Solubility, Histidine buffer pH 6 ([1]; 100 mM histidine buffer pH 6.0) | Solubility, Histidine buffer pH 7 ([1]; 100 mM histidine buffer pH 7.0) | Solubility, Phosphate buffer pH 6 ([1]; 100 mM phosphate buffer pH 6.0) | Solubility, Phosphate buffer pH 7 ([1]; 100 mM phosphate buffer pH 7.0) | Solubility, Phosphate buffer pH 7.5 ([1]; 100 mM phosphate buffer pH7.5) | EC50 [2] [nM]
1 | – | – | CC[C@H](C)[C@@H](C(=O)N[C@@H](CC(C)C)C(=O)N[C@@H](CO)C(=O)N[C@@H](CO)C(=O)N[C@H](C(=O)N[C@@H](CC(N)=O)C(=O)N[C@H](C(=O)NCC(=O)N[C@@H](CO)C(=O)N[C@@H](CC(N)=O)C(=O)N[C@H](C(=O)N1CCC[C@H]1C(N)=O)[C@@H](C)O)C(C)C)[C@@H](C)O)N(C)C(=O)[C@H](C)NC(=O)CN(C)C(=O)[C@H](Cc1ccccc1)NC(=O)[C@H](CC(N)=O)NC(=O)[C@H](CC(N)=O)NC(=O)[C@H](CO)NC(=O)[C@H](CO)NC(=O)[C@H](CCCNC(=N)N)NC(=O)[C@H](Cc1c[nH]cn1)NC(=O)[C@H](CC(C)C)NC(=O)[C@H](Cc1ccccc1)NC(=O)[C@H](CCC(=O)O)NC(=O)[C@H](C)NC(=O)[C@H](CC(C)C)NC(=O)[C@H](CCCNC(=N)N)NC(=O)[C@H](CCC(N)=O)NC(=O)[C@@H](NC(=O)[C@H](C)NC(=O)[C@@H]1CSSC[C@H](NC(=O)[C@H](CCCNC(=N)N)NC(=O)[C@H](CCCNC(=N)N)NC(=O)CC[C@H](NC(=O)CCCCCCCCCCCCCCCCCCC(=O)O)C(=O)O)C(=O)N[C@@H](CC(N)=O)C(=O)N[C@@H]([C@@H](C)O)C(=O)N[C@@H](C)C(=O)N[C@@H]([C@@H](C)O)C(=O)N1)[C@@H](C)O [Compound 83, [19CD]-isoGlu-RRC()NTATC()ATQRLAEFLHRSSNNF-Gly(Me)-A-Ile(Me)-LSSTNVGSNTP-NH2] ({C20 diacid-γGlu}-RRCNTATCATQRLAEFLHRSSNNF[Sar]A[NMeI]LSSTNVGSNTP-NH2; disulfide 3-8) | SS (SS indicates solubility ≥ 1mg/ml) | SS (SS indicates solubility ≥ 1mg/ml) | SS (SS indicates solubility ≥ 1mg/ml) | SS (SS indicates solubility ≥ 1mg/ml) | SS (SS indicates solubility ≥ 1mg/ml) | SS (SS indicates solubility ≥ 1mg/ml) | SS (SS indicates solubility ≥ 1mg/ml) | 0.095
2 | 0.12 | 0.14 | CC[C@H](C)[C@@H](C(=O)N[C@@H](CC(C)C)C(=O)N[C@@H](CO)C(=O)N[C@@H](CO)C(=O)N[C@H](C(=O)N[C@@H](CC(N)=O)C(=O)N[C@H](C(=O)NCC(=O)N[C@@H](CO)C(=O)N[C@@H](CC(N)=O)C(=O)N[C@H](C(=O)N1C[C@H](O)C[C@H]1C(N)=O)[C@@H](C)O)C(C)C)[C@@H](C)O)N(C)C(=O)CN(C)C(=O)[C@H](Cc1ccccc1)NC(=O)[C@H](CC(N)=O)NC(=O)[C@H](CC(N)=O)NC(=O)[C@H](CO)NC(=O)[C@H](CO)NC(=O)[C@H](CCCNC(=N)N)NC(=O)[C@H](Cc1c[nH]cn1)NC(=O)[C@H](CC(C)C)NC(=O)[C@H](Cc1ccccc1)NC(=O)[C@H](CCC(=O)O)NC(=O)[C@H](C)NC(=O)[C@H](CC(C)C)NC(=O)[C@H](CCCNC(=N)N)NC(=O)[C@H](CCC(N)=O)NC(=O)[C@@H](NC(=O)[C@H](C)NC(=O)[C@@H]1CSSC[C@H](NC(=O)[C@H](CCCNC(=N)N)NC(=O)CC[C@H](NC(=O)CCCCCCCCCCCCCCCCCCC(=O)O)C(=O)O)C(=O)N[C@@H](CC(N)=O)C(=O)N[C@@H]([C@@H](C)O)C(=O)N[C@@H](C)C(=O)N[C@@H]([C@@H](C)O)C(=O)N1)[C@@H](C)O [Compound 106, [19CD]-isoGlu-RC()NTATC()ATQRLAEFLHRSSNNF-Gly(Me)-Ile(Me)-LSSTNVGSNT-Hyp-NH2] ({C20 diacid-γGlu}-RCNTATCATQRLAEFLHRSSNNF[Sar][NMeI]LSSTNVGSNT[Hyp]-NH2; disulfide 2-7) | – | – | – | – | – | – | – | –
